According to patent publication US20110008469A1, “ANTIMICROBIAL COMPOSITION AND METHODS AND APPARATUS FOR USE THEREOF” (FLORIDA GULF COAST UNIVERSITY, priority 2009, published 2011):

How the values were obtained:
[1] = test system: V. fischeri; assay: V. fischeri luminescence assay (killing); format: cell-based, Vibrio fischeri; settings: for killing by biocide with varied detergent: 1 mM NH3, 0.5% EtOH; for decrease in luminescence: 2 mM; for killing by biocide with varied alcohol: 1 mM NH3, 0.05 mM CTAB; for effect of ethanol on V. fischeri luminescence: 1% ethanol alone
Protocol: V. fischeri was grown overnight until the culture reached log phase and were brightly luminescent. Since bacterial luminescence is an ATP driven event, light emission is directly related to the metabolism and energy charge state of the organism. […] Samples at given concentrations were added to V. fischeri in a 24 well plate. A small amount was placed in a 96 well plate, agitated, and the luminescence was read in a TECAN well plate reader. For all figures, the total time period that V. fischeri was exposed to each biocide or component was between five and fifteen minutes. […] The right side bars represent a final pH of 9. Low readings indicate killing. […] The purpose of this component is to fluidize the cell membrane to collapse the pH gradient.

[2] = Effectiveness or lethality of biocide composition with substituted components (test not described)
[3] = 0.05 mM detergent, pH 9.0 (FIG. 6)

| Compound | killing by biocide with varied detergent [1, 3] | killing by biocide with varied detergent ([1]; detergent raised to 1 mM, pH 9) | killing by biocide with varied alcohol ([1]; 0.5% alcohol, pH 9.0 (FIG. 7)) | killing by biocide with varied alcohol ([1]; alcohol raised to 1%, pH 9) | effectiveness as component in the composition and method of the invention [2] | also measured |
| --- | --- | --- | --- | --- | --- | --- |
| CCCCCCCCCCCCCCCC[N+](C)(C)C.[Br-] [CTAB, Cetyl trimethylammonium bromide] | some degree of killing | kill effectively | – | – | – | – |
| CCCCCCCCCCCCCCCC[N+](C)(C)C.[Cl-] [CTAC, Cetyl trimetylammonium chloride] | some degree of killing | kill effectively | – | – | – | – |
| CCCCCCCCCCCCCCCCN [HDA, Hexadecylamine] | – | – | – | – | – | decrease in luminescence ([1]; pH 7.5): 11%; decrease in luminescence ([1]; pH 9): 29%; effect of HDA on V. fischeri luminescence ([1]; HDA alone 0-2 mM, pH 7.5 (FIG. 2)): little to no effect; effect of HDA on V. fischeri luminescence ([1]; HDA alone, higher concentrations (up to 2 mM), pH 9 (FIG. 2)): slight effect |
| CCCCCCCCCCCCOS(=O)(=O)[O-].[Na+] [SDS, Sodium dodecyl sulfate] | some degree of killing | kill effectively | – | – | – | – |
| CCCCCCCCCCCCCC[N+](C)(C)C.[Br-] [TTAB, Tetradecyl trimethyl ammonium bromide] | some degree of killing | kill effectively | – | – | – | – |
| CCCCCCCCCCCCCC[N+](C)(C)C.[Cl-] [TTAC, Tetradecyl trimethyl ammonium chloride] | some degree of killing | kill effectively | – | – | – | – |
| N [ammonia] | – | – | – | – | – | effect of ammonia on V. fischeri luminescence ([1]; ammonia alone, 50 mM or lower, pH 7 or 9, versus pH adjusted H2O control (FIG. 3)): no difference from the control |
| Nc1ccccc1 [aniline] | – | – | – | – | – | lethality of biocide with aniline substituted for HAD ([2]; aniline as second hydroxophore component): very lethal |
| OCc1ccccc1 [benzyl alcohol] | – | – | some degree of killing | kill effectively | effective | – |
| CCO [ethanol] | – | – | some degree of killing | kill effectively | – | effect of ethanol on V. fischeri luminescence ([1]; final pH 7, 5-15 min exposure (FIG. 1)): damage; effect of ethanol on V. fischeri luminescence ([1]; final pH 9, 5-15 min exposure (FIG. 1)): damage; higher luminescence reading at pH 9 than same concentration at pH 7 ([1]; 3% ethanol, pH 9 versus pH 7): 40% |
| CO [methanol] | – | – | some degree of killing | kill effectively | effective | – |
| CCCO [propanol] | – | – | some degree of killing | kill effectively | effective | – |
| butanol | – | – | some degree of killing | kill effectively | effective | – |
